Usually EC50 stands for the concentration giving half of the maximal effect.

Structures are written as SMILES. Read-outs that look alike come from different tables or passages of the source.

For assay [1], the system named is HCV genotype 1b (Con1) replicon in HUH-7 cells. Put plainly: HCV replicon luciferase reporter assay, genotype 1b. The following applies: Hepatitis C virus, Huh-7, 72 h, HCV genotype 1b replicon luciferase assay, 3 days incubation. The format is cell-based. In outline:
(§1)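 Replicon inhibition for both genotypes was measured as Renilla luciferase signal (EnduRen, 7.5 μM final, 2 h) after 3-day, 37° C exposure of replicon-bearing HUH-7 cells in 4% FCS DMEM, 0.5% DMSO. The 1b construct carries S1179I; the 1a H77 construct carries P1496L and S2204I. Twenty-point, 3-fold dilutions were fitted four-parametrically for EC50, and CC50 was taken from multiplexed Cell Titer-Blue.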
(In general: A replicon is a self-replicating genome or part of one, used to study replication in cells.)

Assay [2] relates to HCV genotype 1a (H77 strain) replicon in HUH-7 cells. In words: HCV replicon luciferase reporter assay, genotype 1a. Type of assay: cell-based. The following applies: Hepatitis C virus, Huh-7, 72 h, HCV genotype 1a replicon luciferase assay, 3 days incubation. In outline:
as §1

Where [3] appears, read: range class, read-out: LE_1b (EC50, range).
Setting [4] is: range class, read-out: LE_1a (EC50, range).

As to `COCCn1nc(O[C@@H]2C[C@H]3C(=O)N[C@]4(C(=O)NS(=O)(=O)C5(C)CC5)C[C@H]4/C=C\CC[C@H](C)C[C@@H](C)[C@H](NC(=O)OC(C)(C)C(C)(F)F)C(=O)N3C2)c2ccccc2c1=O` [Compound 1019, 3,3-difluoro-2-methylbutan-2-yl((2R,6S,7R,9S,13aS,14aR,16aS,Z)-2-((3-(2-methoxyethyl)-4-oxo-3,4-dihydrophthalazin-1-yl)oxy)-7,9-dimethyl-14a-(((1-methylcyclopropyl)sulfonyl)carbamoyl)-5,16-dioxo-1,2,3,5,6,7,8,9,10,11,13a,14,14a,15,16,16a-hexadecahydrocyclopropa[e]pyrrolo[1,2-a][1,4]diazacyclopentadecin-6-yl)carbamate], the EC50 was above 87.4 nM in assay [1] (setting [3]), 506 nM in assay [1] (read-out: LE_1b (EC50)), above 87.4 nM in assay [2] (setting [4]) and at least 1000 nM in assay [2] (read-out: LE_1a (EC50)).
Regarding `COCCn1nc(O[C@@H]2C[C@H]3C(=O)N[C@]4(C(=O)NS(=O)(=O)C5(C)CC5)C[C@H]4/C=C\CC[C@@H](C)C[C@@H](C)[C@H](NC(=O)OC(C)(C)C(C)(F)F)C(=O)N3C2)c2ccccc2c1=O` [Compound 1020, 3,3-difluoro-2-methylbutan-2-yl((2R,6S,7R,9R,13aS,14aR,16aS,Z)-2-((3-(2-methoxyethyl)-4-oxo-3,4-dihydrophthalazin-1-yl)oxy)-7,9-dimethyl-14a-(((1-methylcyclopropyl)sulfonyl)carbamoyl)-5,16-dioxo-1,2,3,5,6,7,8,9,10,11,13a,14,14a,15,16,16a-hexadecahydrocyclopropa[e]pyrrolo[1,2-a][1,4]diazacyclopentadecin-6-yl)carbamate], the EC50 in assay [1] (setting [3]) and in assay [2] (setting [4]) was 4.82 to 103 nM in each case.
On to `COCCn1nc(O[C@@H]2C[C@H]3C(=O)N[C@]4(C(=O)NS(=O)(=O)C5CC5)C[C@H]4/C=C\CC[C@H](C)C[C@@H](C)[C@H](NC(=O)OC(C)(C)C(F)(F)F)C(=O)N3C2)c2ccccc2c1=O` [Compound 1021, 1,1,1-trifluoro-2-methylpropan-2-yl((2R,6S,7R,9S,13aS,14aR,16aS,Z)-14a-((cyclopropylsulfonyl)carbamoyl)-2-((3-(2-methoxyethyl)-4-oxo-3,4-dihydrophthalazin-1-yl)oxy)-7,9-dimethyl-5,16-dioxo-1,2,3,5,6,7,8,9,10,11,13a,14,14a,15,16,16a-hexadecahydrocyclopropa[e]pyrrolo[1,2-a][1,4]diazacyclopentadecin-6-yl)carbamate], for which the EC50 in assay [1] (setting [3]) and in assay [2] (setting [4]) was above 87.4 nM each time.
Turning to `COCCn1nc(O[C@@H]2C[C@H]3C(=O)N[C@]4(C(=O)NS(=O)(=O)C5CC5)C[C@H]4/C=C\CC[C@@H](C)C[C@@H](C)[C@H](NC(=O)OC(C)(C)C(F)(F)F)C(=O)N3C2)c2ccccc2c1=O` [Compound 1022, 1,1,1-trifluoro-2-methylpropan-2-yl((2R,6S,7R,9R,13aS,14aR,16aS,Z)-14a-((cyclopropylsulfonyl)carbamoyl)-2-((3-(2-methoxyethyl)-4-oxo-3,4-dihydrophthalazin-1-yl)oxy)-7,9-dimethyl-5,16-dioxo-1,2,3,5,6,7,8,9,10,11,13a,14,14a,15,16,16a-hexadecahydrocyclopropa[e]pyrrolo[1,2-a][1,4]diazacyclopentadecin-6-yl)carbamate], the EC50 in assay [1] (setting [3]) and in assay [2] (setting [4]) was 4.82 to 103 nM throughout.
With `COCCn1nc(O[C@@H]2C[C@H]3C(=O)N[C@]4(C(=O)NS(=O)(=O)C5CC5)C[C@H]4/C=C\CC[C@@H](C)C[C@@H](C)[C@H](NC(=O)OC(C)(C)C(C)(F)F)C(=O)N3C2)c2ccccc2c1=O` [Compound 1024, 3,3-difluoro-2-methylbutan-2-yl((2R,6S,7R,9R,13aS,14aR,16aS,Z)-14a-((cyclopropylsulfonyl)carbamoyl)-2-((3-(2-methoxyethyl)-4-oxo-3,4-dihydrophthalazin-1-yl)oxy)-7,9-dimethyl-5,16-dioxo-1,2,3,5,6,7,8,9,10,11,13a,14,14a,15,16,16a-hexadecahydrocyclopropa[e]pyrrolo[1,2-a][1,4]diazacyclopentadecin-6-yl)carbamate], the EC50 in assay [1] (setting [3]) and in assay [2] (setting [4]) was 4.82 to 103 nM throughout.
On to `C[C@H]1CC/C=C\[C@@H]2C[C@@]2(C(=O)NS(=O)(=O)C2(C)CC2)NC(=O)[C@@H]2C[C@@H](Oc3ncc(OCC(F)F)c4ccccc34)CN2C(=O)[C@@H](NC(=O)OC(C)(C)C)[C@H](C)C1` [Compound 1025, tert-butyl ((2R,6S,7R,9S,13aS,14aR,16aS,Z)-2-((4-(2,2-difluoroethoxyl)isoquinolin-1-yl)oxy)-7,9-dimethyl-14a-(((1-methylcyclopropyl)sulfonyl)carbamoyl)-5,16-dioxo-1,2,3,5,6,7,8,9,10,11,13a,14,14a,15,16,16a-hexadecahydrocyclopropa[e]pyrrolo[1,2-a][1,4]diazacyclopentadecin-6-yl)carbamate], for which the EC50 is below 5.46 nM in assay [1] (setting [3]) and 4.82 to 103 nM in assay [2] (setting [4]).
Turning to `C[C@@H]1CC/C=C\[C@@H]2C[C@@]2(C(=O)NS(=O)(=O)C2(C)CC2)NC(=O)[C@@H]2C[C@@H](Oc3ncc(OCC(F)F)c4ccccc34)CN2C(=O)[C@@H](NC(=O)OC(C)(C)C)[C@H](C)C1` [Compound 1026, tert-butyl ((2R,6S,7R,9R,13aS,14aR,16aS,Z)-2-((4-(2,2-difluoroethoxyl)isoquinolin-1-yl)oxy)-7,9-dimethyl-14a-(((1-methylcyclopropyl)sulfonyl)carbamoyl)-5,16-dioxo-1,2,3,5,6,7,8,9,10,11,13a,14,14a,15,16,16a-hexadecahydrocyclopropa[e]pyrrolo[1,2-a][1,4]diazacyclopentadecin-6-yl)carbamate], the EC50 in assay [1] (setting [3]) and in assay [2] (setting [4]) was below 5.46 nM each time.
In the case of `COCCOc1cnc(O[C@@H]2C[C@H]3C(=O)N[C@]4(C(=O)NS(=O)(=O)C5(C)CC5)C[C@H]4/C=C\CC[C@@H](C)C[C@@H](C)[C@H](NC(=O)OC(C)(C)C)C(=O)N3C2)c2ccccc12` [Compound 1027, tert-butyl ((2R,6S,7R,9R,13aS,14aR,16aS,Z)-2-((4-(2-methoxyethoxyl)isoquinolin-1-yl)oxy)-7,9-dimethyl-14a-(((1-methylcyclopropyl)sulfonyl)carbamoyl)-5,16-dioxo-1,2,3,5,6,7,8,9,10,11,13a,14,14a,15,16,16a-hexadecahydrocyclopropa[e]pyrrolo[1,2-a][1,4]diazacyclopentadecin-6-yl)carbamate], the EC50 in assay [1] (setting [3]) and in assay [2] (setting [4]) was below 5.46 nM each time.
`C[C@@H]1CC/C=C\[C@@H]2C[C@@]2(C(=O)NS(=O)(=O)C2CC2)NC(=O)[C@@H]2C[C@@H](Oc3ncc(OCC(F)F)c4ccccc34)CN2C(=O)[C@@H](NC(=O)OC(C)(C)C)[C@H](C)C1` [Compound 1028, tert-butyl ((2R,6S,7R,9R,13aS,14aR,16aS,Z)-14a-((cyclopropylsulfonyl)carbamoyl)-2-((4-(2,2-difluoroethoxyl)isoquinolin-1-yl)oxy)-7,9-dimethyl-5,16-dioxo-1,2,3,5,6,7,8,9,10,11,13a,14,14a,15,16,16a-hexadecahydrocyclopropa[e]pyrrolo[1,2-a][1,4]diazacyclopentadecin-6-yl)carbamate]: the EC50 in assay [1] (setting [3]) and in assay [2] (setting [4]) was below 5.46 nM throughout.
Turning to `C[C@H]1CC/C=C\[C@@H]2C[C@@]2(C(=O)NS(=O)(=O)C2(C)CC2)NC(=O)[C@@H]2C[C@@H](Oc3ncc(OCC(F)F)c4ccccc34)CN2C(=O)[C@@H](NC(=O)OC(C)(C)C(F)(F)F)[C@H](C)C1` [Compound 1029, 1,1,1-trifluoro-2-methylpropan-2-yl((2R,6S,7R,9S,13aS,14aR,16aS,Z)-2-((4-(2,2-difluoroethoxyl)isoquinolin-1-yl)oxy)-7,9-dimethyl-14a-(((1-methylcyclopropyl)sulfonyl)carbamoyl)-5,16-dioxo-1,2,3,5,6,7,8,9,10,11,13a,14,14a,15,16,16a-hexadecahydrocyclopropa[e]pyrrolo[1,2-a][1,4]diazacyclopentadecin-6-yl)carbamate], the concentration for a half-maximal effect (EC50) in assay [1] (setting [3]) and in assay [2] (setting [4]) was 4.82 to 103 nM throughout.
On to `C[C@@H]1CC/C=C\[C@@H]2C[C@@]2(C(=O)NS(=O)(=O)C2(C)CC2)NC(=O)[C@@H]2C[C@@H](Oc3ncc(OCC(F)F)c4ccccc34)CN2C(=O)[C@@H](NC(=O)OC(C)(C)C(F)(F)F)[C@H](C)C1` [Compound 1030, 1,1,1-trifluoro-2-methylpropan-2-yl((2R,6S,7R,9R,13aS,14aR,16aS,Z)-2-((4-(2,2-difluoroethoxyl)isoquinolin-1-yl)oxy)-7,9-dimethyl-14a-(((1-methylcyclopropyl)sulfonyl)carbamoyl)-5,16-dioxo-1,2,3,5,6,7,8,9,10,11,13a,14,14a,15,16,16a-hexadecahydrocyclopropa[e]pyrrolo[1,2-a][1,4]diazacyclopentadecin-6-yl)carbamate], for which the EC50 in assay [1] (setting [3]) and in assay [2] (setting [4]) was below 5.46 nM each time.
With `C[C@H]1CC/C=C\[C@@H]2C[C@@]2(C(=O)NS(=O)(=O)C2CC2)NC(=O)[C@@H]2C[C@@H](Oc3ncc(OCC(F)F)c4ccccc34)CN2C(=O)[C@@H](NC(=O)OC(C)(C)C(F)(F)F)[C@H](C)C1` [Compound 1031, 1,1,1-trifluoro-2-methylpropan-2-yl((2R,6S,7R,9S,13aS,14aR,16aS,Z)-14a-((cyclopropylsulfonyl)carbamoyl)-2-((4-(2,2-difluoroethoxyl)isoquinolin-1-yl)oxy)-7,9-dimethyl-5,16-dioxo-1,2,3,5,6,7,8,9,10,11,13a,14,14a,15,16,16a-hexadecahydrocyclopropa[e]pyrrolo[1,2-a][1,4]diazacyclopentadecin-6-yl)carbamate], the half-maximal effective concentration (EC50) in assay [1] (setting [3]) and in assay [2] (setting [4]) was 4.82 to 103 nM each time.

These data come from patent US9499550B2 (BRISTOL-MYERS SQUIBB COMPANY, priority 2012, dated 2016).
